In PMC6199744, “Development of Chemical Proteomics for the Folateome and Analysis of the Kinetoplastid Folateome” (ACS Infectious Diseases, 2018):

Tested on: L. major lysate proteins
Test: Multitargeted bead mixture chemoproteomics, single concentration competition, proteome-wide
Assay type: binding

Nc1nc2[nH]cc(CCc3ccc(C(=O)N[C@@H](CCC(=O)O)C(=O)O)cc3)c2c(=O)[nH]1 [PTX, pemetrexed]
fold change relative to vehicle control (protein LMJF.35.1380, MIT[…], BETA SUBUNIT, PUTATIVE): 0.94 | fold change vs vehicle control (protein LMJF.35.1830 HY[…], CONSERVED): 0.93 | fold change vs vehicle control (protein LMJF.35.3340 6-phosphogluconate dehydrogenase): 1.01 | fold change (protein LMJF.35.3700 GIM5A PROTEIN, PUTATIVE,[…] PROTEIN, vehicle control = 1): 0.93 | fold change vs vehicle control (protein LMJF.35.3760 60S RIBOSOMAL PROTEIN L27A/L29, PUTATIVE): 1.08 | fold change relative to vehicle control (protein LMJF.35.3840, […] 2 SUBUNIT, PUTATIVE): 0.83 | fold change vs vehicle control (protein LMJF.35.3860 T-COMPLEX PROTEIN 1, ETA SUBUNIT, PUTATIVE): 0.97 | fold change (protein LMJF.35.4420 MIT[…] TRANSPORTER, PUTATIVE, vehicle control = 1): 1.01 | fold change relative to vehicle control (protein LMJF.35.4880, HY[…], CONSERVED (TPR repeat, putative)): 1.4 | fold change relative to vehicle control (protein LMJF.35.5330, ISOPENTENYL-D[…]-ISOMERASE, PUTATIVE): 1.04 | fold change relative to vehicle control (protein LMJF.36.0070, STRESS-INDUCIBLE PROTEIN STI1 HOMOLOG): 1.49 | fold change (protein LMJF.36.0480 HY[…], CONSERVED, vehicle control = 1): 0.95 | fold change vs vehicle control (protein LMJF.36.0620 HY[…], CONSERVED): 0.88 | fold change vs vehicle control (protein LMJF.36.0930 40S RIBOSOMAL PROTEIN S18, PUTATIVE): 1.13 | fold change vs vehicle control (protein LMJF.36.0990 40S RIBOSOMAL PROTEIN S10, PUTATIVE): 1.06 | fold change (protein LMJF.36.1140 SHORT CHAIN 3-HYDROXYACYL-COA DEHYDROGENASE, PUTATIVE, vehicle control = 1): 0.9 | fold change relative to vehicle control (protein LMJF.36.1260, FRUCTOSE-1,6-BI[…]): 1.12 | fold change (protein LMJF.36.1340 N-ACETYLT[…] NAT1, PUTATIVE, vehicle control = 1): 0.98 | fold change vs vehicle control (protein LMJF.36.1370 TRANSITIONAL ENDOPLASMIC RETICULUM ATPASE, PUTATIVE,VALOSIN-CONTAINING PROTEIN HOMOLOG): 0.94 | fold change vs vehicle control (protein LMJF.36.1650 […] 5 SUBUNIT, PUTATIVE): 1.01 | fold change relative to vehicle control (protein LMJF.36.2380, STEROL 24-C-METHYLTRANSFERASE, PUTATIVE): 0.95 | fold change vs vehicle control (protein LMJF.36.2950 SUCCINYL-COA LIGASE GDP-FORMING] BETA-CHAIN, PUTATIVE): 0.96 | fold change vs vehicle control (protein LMJF.36.3210 14-3-3 PROTEIN-LIKE PROTEIN): 0.92 | fold change vs vehicle control (protein LMJF.36.3410 SHORT CHAIN DEHYDROGENASE-LIKE PROTEIN): 1.04 | fold change (protein LMJF.36.3460 HY[…], CONSERVED (NIPSNAP, putative), vehicle control = 1): 0.94 | fold change (protein LMJF.36.3580 HY[…], CONSERVED (Protein of unknown function (DUF2009), putative), vehicle control = 1): 1.01 | fold change (protein LMJF.36.3750 40S RIBOSOMAL PROTEIN S27-1, PUTATIVE, vehicle control = 1): 0.86 | fold change vs vehicle control (protein LMJF.36.3910 S-ADENOSYLHO[…]): 0.95 | fold change vs vehicle control (protein LMJF.36.5010 40S RIBOSOMAL PROTEIN SA, PUTATIVE): 1.03 | fold change vs vehicle control (protein LMJF.36.5130 HY[…], CONSERVED): 0.91 | fold change vs vehicle control (protein LMJF.36.5150 HY[…], CONSERVED): 0.87 | fold change relative to vehicle control (protein LMJF.36.5380, NADH DEHYDROGENASE, PUTATIVE): 0.93 | fold change vs vehicle control (protein LMJF.36.5390 PHOSPHORIBOSYLPYR[…], PUTATIVE): 0.98 | fold change vs vehicle control (protein LMJF.36.5620 ISOLEUCYL-TRNA SYNTHETASE, PUTATIVE): 0.96 | fold change (protein LMJF.36.6430 PROTEIN TRANSPORT PROTEIN SEC23-LIKE PROTEIN, vehicle control = 1): 0.86 | fold change vs vehicle control (protein LMJF.36.6760 HY[…], CONSERVED): 0.92 | fold change relative to vehicle control (protein LMJF.[…], MIT[…] BETA SUBUNIT, PUTATIVE): 0.97 | fold change relative to vehicle control (protein LMJF.[…], POLY(A) EXPORT PROTEIN, PUTATIVE): 1.13 | fold change (vs vehicle control, protein LINJ.20.0630 CYTIDINE TR[…], PUTATIVE,CTP SYNTHASE, PUTATIVE): 0.98 | fold change (vs vehicle control, protein LINJ.20.1390 COATOMER BETA SUBUNIT, PUTATIVE): 0.66 | fold change (vs vehicle control, protein LMJF.05.1140 VACUOLAR ATPASE SUBUNIT-LIKE PROTEIN): 0.84 | fold change (vs vehicle control, protein LMJF.07.1090 DELTA-5 FATTY ACID DESATURASE): 0.92 | fold change (vs vehicle control, protein LMJF.09.0220 HY[…], CONSERVED): 0.65 | fold change (vs vehicle control, protein LMJF.11.1030 HY[…], CONSERVED): 0.9 | fold change (vs vehicle control, protein LMJF.14.0640 FATTY ACID ELONGASE, PUTATIVE): 0.83 | fold change (vs vehicle control, protein LMJF.14.0705 FATTY ACID ELONGASE, PUTATIVE): 0.85 | fold change (vs vehicle control, protein LMJF.14.1120 KINESIN K39, PUTATIVE): 0.88 | fold change (vs vehicle control, protein LMJF.16.1610 PROHIBITIN): 1.07 | fold change (vs vehicle control, protein LMJF.17.0010 HY[…], CONSERVED): 0.88 | fold change (vs vehicle control, protein LMJF.18.1130 RAS-RELATED PROTEIN RAB-5, PUTATIVE): 0.65 | fold change (vs vehicle control, protein LMJF.19.1420 CYSTEINE PEPTIDASE A (CPA)): 0.88 | fold change (vs vehicle control, protein LMJF.21.0280 HY[…], CONSERVED): 0.88 | fold change (vs vehicle control, protein LMJF.22.1560 40S RIBOSOMAL PROTEIN L14, PUTATIVE): 0.87 | fold change (vs vehicle control, protein LMJF.23.1220 T-COMPLEX PROTEIN 1, GAMMA SUBUNIT, PUTATIVE): 0.94 | fold change (vs vehicle control, protein LMJF.24.0370 ASPARTATE AMINOTRANSFERASE, PUTATIVE): 1.06 | fold change (vs vehicle control, protein LMJF.25.1770 ENOYL-COA REDUCTASE, PUTATIVE): 1.06 | fold change (vs vehicle control, protein LMJF.26.0170 60S RIBOSOMAL PROTEIN L7, PUTATIVE): 0.79 | fold change (vs vehicle control, protein LMJF.26.1550 TRIFUNCTIONAL ENZYME ALPHA SUBUNIT, MIT[…]-LIKE PROTEIN): 1.12 | fold change (vs vehicle control, protein LMJF.26.1610 PROLINE OXIDASE, MIT[…]-LIKE PROTEIN): 0.89 | fold change (vs vehicle control, protein LMJF.28.1950 X-PRO, DIPEPTIDYL-PEPTIDASE,SERINE PEPTIDASE, CLAN SC, FAMILY S15, PUTATIVE): 0.74 | fold change (vs vehicle control, protein LMJF.31.1070 BIOTIN/LIPOATE PROTEIN LIGASE-LIKE PROTEIN): 0.65 | fold change (vs vehicle control, protein LMJF.32.1370 HY[…], CONSERVED): 0.79 | fold change (vs vehicle control, protein LMJF.34.0490 IMPORTIN BETA-1 SUBUNIT, PUTATIVE): 0.77 | fold change (vs vehicle control, protein LMJF.34.4060 UBIQUITIN HYDROLASE, PUTATIVE,CYSTEINE PEPTIDASE, CLAN CA, FAMILY C19, PUTATIVE): 0.78 | fold change (vs vehicle control, protein LMJF.36.1600 […] 1 SUBUNIT, PUTATIVE): 0.85 | fold change (vs vehicle control, protein LMJF.[…] RIBOSOMAL PROTEIN S7, PUTATIVE): 1.19
